Reference: patent publication US8394789B2, “(Dihydro)pyrrolo[2,1-α]isoquinolines” (MSD Oss B.V., priority 2008, dated 2013)

biological target: T1, human FSH receptor (Homo sapiens, UniProt P23945); test: hFSHRago (CHO luc): agonistic activity at the human FSH receptor expressed in CHO cells, CRE-luciferase reporter; type: cell-based; settings: CHO cells stably transfected with human FSH receptor and CRE/luciferase reporter; 4 hours of incubation
T1 construct: expressed in transfected cells
T1 sequence (P23945 18-695): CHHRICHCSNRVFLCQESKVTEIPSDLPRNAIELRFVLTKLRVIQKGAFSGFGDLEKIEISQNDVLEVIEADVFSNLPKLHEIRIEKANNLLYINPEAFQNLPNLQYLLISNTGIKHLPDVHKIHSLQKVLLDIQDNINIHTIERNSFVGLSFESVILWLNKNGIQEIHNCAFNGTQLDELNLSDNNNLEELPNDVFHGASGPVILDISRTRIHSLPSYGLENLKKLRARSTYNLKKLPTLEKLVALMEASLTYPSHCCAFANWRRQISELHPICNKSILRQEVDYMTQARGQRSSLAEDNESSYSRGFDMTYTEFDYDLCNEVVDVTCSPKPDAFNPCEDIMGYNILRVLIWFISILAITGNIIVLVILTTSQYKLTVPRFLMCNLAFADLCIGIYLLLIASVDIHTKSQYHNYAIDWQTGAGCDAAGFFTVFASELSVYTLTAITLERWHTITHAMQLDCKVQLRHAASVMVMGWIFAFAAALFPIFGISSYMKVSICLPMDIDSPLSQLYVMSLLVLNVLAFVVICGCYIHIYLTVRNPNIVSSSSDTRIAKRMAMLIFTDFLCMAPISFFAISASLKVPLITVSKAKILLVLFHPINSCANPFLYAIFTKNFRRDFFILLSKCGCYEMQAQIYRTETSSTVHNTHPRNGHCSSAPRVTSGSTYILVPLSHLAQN

Question: For `COc1cc2c(cc1OC(C)C)-c1c(-c3cccs3)cc(C(=O)N3CCCN(C(C)=O)CCC3)n1CC2` [Example 16, 1-[5-(9-Isopropoxy-8-methoxy-1-thiophen-2-yl-5,6-dihydro-pyrrolo[2,1-α]isoquinoline-3-carbonyl)-[1,5]diazocan-1-yl]-ethanone], which EC50 is on record?
Answer: 5 nM

Question: With `COc1cc2c(cc1OC(C)C)-c1c(-c3cccs3)cc(C(=O)N3CC4CC(C3)c3cccc(=O)n3C4)n1CC2` (stereo not drawn) [Example 18, 3-(9-Isopropoxy-8-methoxy-1-thiophen-2-yl-5,6-dihydro-pyrrolo[2,1-α]isoquinoline-3-carbonyl)-1,2,3,4,5,6-hexahydro-1,5-methano-pyrido[1,2-α][1,5]diazocin-8-one] as the compound, how does the EC50 read?
Answer: 37.3 nM

Question: With `COc1cc2c(cc1NS(C)(=O)=O)-c1c(-c3cccs3)cc(C(=O)N3CCCC3(C)C)n1CC2` [Example 100, N-[3-(2,2-Dimethyl-pyrrolidine-1-carbonyl)-8-methoxy-1-thiophen-2-yl-5,6-dihydro-pyrrolo[2,1-α]isoquinolin-9-yl]-methanesulfonamide] as the compound, how does the EC50 read?
Answer: 1 nM

Question: Which EC50 does the source give for `COc1cc2c(cc1NC(=O)CN1CCOCC1)-c1c(-c3cccs3)cc(C(=O)N3CCCC3(C)C)n1CC2` [Example 101, N-[3-(2,2-Dimethyl-pyrrolidine-1-carbonyl)-8-methoxy-1-thiophen-2-yl-5,6-dihydro-pyrrolo[2,1-α]isoquinolin-9-yl]-2-morpholin-4-yl-acetamide] here?
Answer: 2 nM

Question: Which EC50 does the source give for `CN(C(=O)c1cc(-c2cccs2)c2n1CCc1ccc(NS(=O)(=O)N(C)C)cc1-2)C(C)(C)C` [Example 103, 9-Dimethylaminosulfonylamino-1-thiophen-2-yl-5,6-dihydro-pyrrolo[2,1-α]isoquinoline-3-carboxylic acid tert-butyl-methyl-amide] here?
Answer: 756 nM

Question: For `COc1cc2c(cc1OC)-c1c(-c3cccs3)cc(C(=O)N3CCCN(C(=O)C4(C)CCC4)CC3)n1CC2` [Example 104, (8,9-Dimethoxy-1-thiophen-2-yl-5,6-dihydro-pyrrolo[2,1-α]isoquinolin-3-yl)-[4-(1-methyl-cyclobutanecarbonyl)-[1,4]diazepan-1-yl]-methanone], which EC50 is on record?
Answer: 3 nM

Question: For `COc1cc2c(cc1OC)-c1c(-c3cccs3)cc(C(=O)N3CCC[C@H](NC(=O)C4CCC4)C3)n1CC2` [Example 105, Cyclobutanecarboxylic acid [(S)-1-(8,9-dimethoxy-1-thiophen-2-yl-5,6-dihydro-pyrrolo[2,1-α]isoquinoline-3-carbonyl)-piperidin-3-yl]-amide], which EC50 is on record?
Answer: 1730 nM

Question: With `COc1cc2c(cc1OC)-c1c(-c3cccs3)cc(C(=O)N3CC[C@@H](NC(=O)N(C)C)C3)n1CC2` [Example 106, 3-[(R)-1-(8,9-Dimethoxy-1-thiophen-2-yl-5,6-dihydro-pyrrolo[2,1-α]isoquinoline-3-carbonyl)-pyrrolidin-3-yl]-1,1-dimethyl-urea] as the compound, how does the EC50 read?
Answer: 755 nM

Question: Which EC50 does the source give for `COc1cc2c(cc1OC)-c1c(-c3cccs3)cc(C(=O)N3CCC[C@@H](N(C)C(C)=O)C3)n1CC2` [Example 107, N-[(R)-1-(8,9-Dimethoxy-1-thiophen-2-yl-5,6-dihydro-pyrrolo[2,1-α]isoquinoline-3-carbonyl)-piperidin-3-yl]-N-methyl-acetamide] here?
Answer: 30.9 nM

Question: For `COc1cc2c(cc1OC)-c1c(Br)cc(C(=O)O)n1CC2` [Example 108b], which EC50 is on record?
Answer: 99.2 nM

Question: Which EC50 does the source give for `COc1cc2c(cc1OC)-c1c(Br)cc(C(=O)N3CCCN(C(=O)C4CCC4)CC3)n1CC2` [Example 108c] here?
Answer: 100 nM

Question: Which EC50 does the source give for `C#Cc1cc(C(=O)N2CCCN(C(=O)c3ccccc3)CC2)n2c1-c1cc(OC)c(OC)cc1CC2` [Example 109, (4-Benzoyl-[1,4]diazepan-1-yl)-(1-ethynyl-8,9-dimethoxy-5,6-dihydro-pyrrolo[2,1-α]isoquinolin-3-yl)-methanone] here?
Answer: 76.2 nM

Question: With `COc1cc2c(cc1OC)-c1c(C3=CCCCC3)cc(C(=O)N(C)C(C)(C)C)n1CC2` [Example 110, 1-Cyclohex-1-enyl-8,9-dimethoxy-5,6-dihydro-pyrrolo[2,1-α]isoquinoline-3-carboxylic acid tert-butyl-methyl-amide] as the compound, how does the EC50 read?
Answer: 76.5 nM

Question: For `COc1cc2c(cc1OC)-c1c(-c3cccs3)cc(C(=O)N3CCCN(C(=O)C4CCC4)CC3)n1CC2` [Example 111a, (4-Cyclobutanecarbonyl-[1,4]diazepan-1-yl)-(8,9-dimethoxy-1-thiophen-2-yl-5,6-dihydro-pyrrolo[2,1-α]isoquinolin-3-yl)-methanone], which EC50 is on record?
Answer: 2.9 nM

Question: Which EC50 does the source give for `COc1cc2ccn3c(C(=O)N4CCCN(C(=O)C5CCC5)CC4)cc(-c4cccs4)c3c2cc1OC` [Example 111b, (4-Cyclobutanecarbonyl-[1,4]diazepan-1-yl)-(8,9-dimethoxy-1-thiophen-2-yl-pyrrolo[2,1-α]isoquinolin-3-yl)-methanone] here?
Answer: 4.9 nM

Question: With `CCOc1cc2c(cc1OC)CCn1c(C(=O)N(CC)C(C)C)c(C(C)=O)c(-c3cccs3)c1-2` [Example 112, 2-Acetyl-9-ethoxy-8-methoxy-1-thiophen-2-yl-5,6-dihydro-pyrrolo[2,1-α]isoquinoline-3-carboxylic acid ethyl-isopropyl-amide] as the compound, how does the EC50 read?
Answer: 200 nM

Question: For `COc1cc2c(cc1OC(F)F)-c1c(-c3nccs3)cc(C(=O)N(C)C(C)(C)C)n1CC2` [Example 113, 9-Difluoromethoxy-8-methoxy-1-thiazol-2-yl-5,6-dihydro-pyrrolo[2,1-α]isoquinoline-3-carboxylic acid tert-butyl-methyl-amide], which EC50 is on record?
Answer: 39.6 nM

Question: Which EC50 does the source give for `CCN(C(=O)c1cc(-c2cccs2)c2n1CCc1c-2cc(OC)c(OC)c1C)C(C)C` [Example 114, 8,9-Dimethoxy-7-methyl-1-thiophen-2-yl-5,6-dihydro-pyrrolo[2,1-α]isoquinoline-3-carboxylic acid ethyl-isopropyl-amide] here?
Answer: 321 nM

Question: With `CCN(C(=O)c1cc(-c2cccs2)c2n1CCc1c-2cc(OC)c(OC)c1F)C(C)C` [Example 115, 7-Fluoro-8,9-dimethoxy-1-thiophen-2-yl-5,6-dihydro-pyrrolo[2,1-α]isoquinoline-3-carboxylic acid ethyl-isopropyl-amide] as the compound, how does the EC50 read?
Answer: 937 nM

Question: Which EC50 does the source give for `CCN(C(=O)c1cc(-c2ccsc2)c2n1CCc1cc(OC)c(OC)c(F)c1-2)C(C)C` [Example 116, 10-Fluoro-8,9-dimethoxy-1-thiophen-3-yl-5,6-dihydro-pyrrolo[2,1-α]isoquinoline-3-carboxylic acid ethyl-isopropyl-amide] here?
Answer: 318 nM

Question: Which EC50 does the source give for `CCN(C(=O)c1cc(-c2ccsc2)c2n1CCc1cc(Br)c(OC)cc1-2)C(C)C` [Example 117, 8-Bromo-9-methoxy-1-thiophen-3-yl-5,6-dihydro-pyrrolo[2,1-α]isoquinoline-3-carboxylic acid ethyl-isopropyl-amide] here?
Answer: 1100 nM

Question: Which EC50 does the source give for `COc1cc2c(cc1OC)-c1c(-c3ccc(F)cc3F)cc(C(=O)N(C)C(C)(C)C)n1CC2` [Example 118, 1-(2,4-Difluoro-phenyl)-8,9-dimethoxy-5,6-dihydro-pyrrolo[2,1-α]isoquinoline-3-carboxylic acid tert-butyl-methyl-amide] here?
Answer: 48.3 nM

Question: Which EC50 does the source give for `CCOC(=O)CN(C)C(=O)c1cc(-c2ccsc2)c2n1CCc1cc(OC)c(OC)cc1-2` [Example 119c, [(8,9-Dimethoxy-1-thiophen-3-yl-5,6-dihydro-pyrrolo[2,1-α]isoquinoline-3-carbonyl)-methyl-amino]-acetic acid ethyl ester] here?
Answer: 42 nM

Question: For `COc1cc2c(cc1OC)-c1c(-c3ccsc3)cc(C(=O)N(C)CC(=O)N(C)CC(C)C)n1CC2` [Example 119e, 8,9-dimethoxy-1-thiophen-3-yl-5,6-dihydro-pyrrolo[2,1-α]isoquinoline-3-carboxylic acid [(isobutyl-methyl-carbamoyl)-methyl]-methyl-amide], which EC50 is on record?
Answer: 1080 nM

Question: With `COc1cc2c(c(OC)c1)-c1c(-c3ccsc3)cc(C(=O)N(C)C(C)(C)C)n1CC2` [Example 120, 8,10-Dimethoxy-1-thiophen-3-yl-5,6-dihydro-pyrrolo[2,1-α]isoquinoline-3-carboxylic acid tert-butyl-methyl-amide] as the compound, how does the EC50 read?
Answer: 699 nM

Question: Which EC50 does the source give for `COc1cc2c(cc1CO)-c1c(-c3cccs3)cc(C(=O)N(C)C(C)(C)C)n1CC2` [Example 121a, 9-Hydroxymethyl-8-methoxy-1-thiophen-2-yl-5,6-dihydro-pyrrolo[2,1-α]isoquinoline-3-carboxylic acid tert-butyl-methyl-amide] here?
Answer: 10 nM

Question: With `COCc1cc2c(cc1OC)CCn1c(C(=O)N(C)C(C)(C)C)cc(-c3cccs3)c1-2` [Example 121b, 8-Methoxy-9-methoxymethyl-1-thiophen-2-yl-5,6-dihydro-pyrrolo[2,1-α]isoquinoline-3-carboxylic acid tert-butyl-methyl-amide] as the compound, how does the EC50 read?
Answer: 1.6 nM

Question: With `COc1cc2c(cc1C(C)=O)-c1c(-c3cccs3)cc(C(=O)N3CCCC3(C)C)n1CC2` [Example 122, 1-[3-(2,2-Dimethyl-pyrrolidine-1-carbonyl)-8-methoxy-1-thiophen-2-yl-5,6-dihydro-pyrrolo[2,1-α]isoquinolin-9-yl]-ethanone] as the compound, how does the EC50 read?
Answer: 2 nM

system: not given; test: not given; settings: not given

Question: For `COc1cc2c(cc1OC(C)C)-c1c(-c3cccs3)cc(C(=O)N3CCCN(C(C)=O)CCC3)n1CC2` [Example 16, 1-[5-(9-Isopropoxy-8-methoxy-1-thiophen-2-yl-5,6-dihydro-pyrrolo[2,1-α]isoquinoline-3-carbonyl)-[1,5]diazocan-1-yl]-ethanone], which melting point is on record?
Answer: 153 to 155 °C

Question: With `COc1cc2c(cc1OC(C)C)-c1c(-c3cccs3)cc(C(=O)N3CC4CC(C3)c3cccc(=O)n3C4)n1CC2` (stereo not drawn) [Example 18, 3-(9-Isopropoxy-8-methoxy-1-thiophen-2-yl-5,6-dihydro-pyrrolo[2,1-α]isoquinoline-3-carbonyl)-1,2,3,4,5,6-hexahydro-1,5-methano-pyrido[1,2-α][1,5]diazocin-8-one] as the compound, how does the melting point read?
Answer: 260 °C
